From publication PMC8058163 (Clinical pharmacology and therapeutics, 2020)
Read-outs that look alike come from different tables or passages of the source.

Key:
[1] = clinical; conditions: both, human, in vivo

Structure (SMILES)	AUC0–24, goldenseal exposure / baseline ratio (both, human, in vivo)	ClR, goldenseal exposure / baseline ratio (both, human, in vivo)	Cmax, goldenseal exposure / baseline ratio (both, human, in vivo)	AUC(0-t) [1]	CL renal [1]	Cmax [1]	AUC(0-t) ([1]; po)	CL renal ([1]; po)	Cmax ([1]; po)	increase of geometric mean Cmax (in the presence of goldenseal)	increase of systemic exposure (in the presence of goldenseal)	AUC(0-inf) [1]	AUC(0-inf) ([1]; po)	half-life ([1]; po)	AUC0–72 (human, in vivo)	Cmax (human, in vivo)	AUC0–72 (human, in vivo, po)	Cmax (human, in vivo, po)
CC(C)c1nc(N(C)S(C)(=O)=O)nc(-c2ccc(F)cc2)c1/C=C/[C@@H](O)C[C@@H](O)CC(=O)O [Rosuvastatin acid, rosuvastatin]	1.01 [0.91–1.13]	0.96 [0.89–1.03]	1.08 [0.94–1.22]	0.06 µM·h	247 mL/min	7.9 nM	0.059 µM·h	257 mL/min	7.4 nM	–	–	–	–	–	–	–	–	–
Cc1ncc2n1-c1ccc(Cl)cc1C(c1ccccc1F)=NC2 [Midazolam, midazolam]	–	–	–	0.086 µM·h	1.17 mL/min	–	0.062 µM·h	0.833 mL/min	26 nM	31%	~ 40%	0.096 µM·h	0.067 µM·h	3.9 h	–	–	–	–
CC(C)c1nc(N(C)S(C)(=O)=O)nc(-c2ccc(F)cc2)c1/C=C/[C@@H]1C[C@@H](O)CC(=O)O1 [Rosuvastatin lactone, rosuvastatin lactone]	–	–	–	–	–	–	–	–	–	–	–	–	–	–	27 [23–32] nM*h	1.5 nM	28 [24–32] nM*h	1.5 nM
CN(C)C(=N)N=C(N)N [Metformin, metformin]	–	–	–	3.6 µM·h	700 mL/min	540 nM	4.7 µM·h	683 mL/min	750 nM	–	–	3.8 µM·h	5 µM·h	–	–	–	–	–
